Test results: patent publication US8703961B2, “Thiazole derivatives for the treatment of diseases such as cancer” (Merck Patent GmbH, priority 2009, dated 2014)

Tests used:
Assay in all cases: filter binding kinase assay
Type in all cases: biochemical
Settings in all cases: derived from % inhibition at 1 μM
IKBKB = molecular target: T1, IKBKB (Homo sapiens, UniProt O14920)
T1 construct: purchased
T1 sequence (O14920 1-756): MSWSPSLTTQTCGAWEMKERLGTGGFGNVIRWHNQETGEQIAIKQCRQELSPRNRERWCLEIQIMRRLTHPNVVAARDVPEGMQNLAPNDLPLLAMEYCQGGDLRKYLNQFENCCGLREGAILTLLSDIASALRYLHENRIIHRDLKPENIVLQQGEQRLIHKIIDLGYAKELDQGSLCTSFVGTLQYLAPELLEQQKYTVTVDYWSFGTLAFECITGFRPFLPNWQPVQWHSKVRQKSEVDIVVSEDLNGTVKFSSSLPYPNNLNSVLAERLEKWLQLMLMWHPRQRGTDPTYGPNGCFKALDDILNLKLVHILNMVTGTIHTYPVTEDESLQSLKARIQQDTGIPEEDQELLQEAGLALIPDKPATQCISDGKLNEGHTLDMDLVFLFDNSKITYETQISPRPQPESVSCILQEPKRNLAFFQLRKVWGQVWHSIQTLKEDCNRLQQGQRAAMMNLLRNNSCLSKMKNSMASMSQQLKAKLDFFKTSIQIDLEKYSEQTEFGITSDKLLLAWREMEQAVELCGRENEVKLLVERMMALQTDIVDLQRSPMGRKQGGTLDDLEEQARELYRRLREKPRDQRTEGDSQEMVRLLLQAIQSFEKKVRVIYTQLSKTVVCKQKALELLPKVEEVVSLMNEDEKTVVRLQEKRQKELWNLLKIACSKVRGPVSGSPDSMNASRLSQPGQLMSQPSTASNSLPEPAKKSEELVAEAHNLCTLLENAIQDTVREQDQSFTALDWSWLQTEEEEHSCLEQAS
How it was run: (§1)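 Kinase activity is measured at room temperature by filter binding, with incorporated radiolabel counted after acid termination. A 5-minute preincubation of compound, enzyme and substrate precedes addition of ATP from a kinase-dependent stock (5, 20 or 50 […]).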

MAPK12 = molecular target: T2, MAPK12 (Homo sapiens, UniProt P53778)
T2 construct: purchased
T2 sequence (P53778 1-367): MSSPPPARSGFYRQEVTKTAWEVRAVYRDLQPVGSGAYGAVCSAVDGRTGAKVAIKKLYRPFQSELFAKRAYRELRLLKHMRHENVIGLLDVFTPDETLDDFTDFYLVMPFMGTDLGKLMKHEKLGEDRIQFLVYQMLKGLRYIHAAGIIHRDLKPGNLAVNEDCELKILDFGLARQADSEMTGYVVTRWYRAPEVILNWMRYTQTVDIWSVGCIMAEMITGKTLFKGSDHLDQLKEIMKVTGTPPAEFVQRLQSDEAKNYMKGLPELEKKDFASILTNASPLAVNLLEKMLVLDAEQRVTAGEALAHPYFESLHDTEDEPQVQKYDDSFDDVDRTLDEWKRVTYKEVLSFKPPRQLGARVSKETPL
How it was run: as §1

NEK6 = molecular target: T3, NEK6 (Homo sapiens, UniProt Q9HC98)
T3 construct: purchased
How it was run: as §1

PLK1 = molecular target: T4, PLK1 (Homo sapiens, UniProt P53350)
T4 construct: purchased
How it was run: as §1

STK11 = molecular target: T5, STK11 (Homo sapiens, UniProt Q15831)
T5 construct: purchased
T5 sequence (Q15831 1-433): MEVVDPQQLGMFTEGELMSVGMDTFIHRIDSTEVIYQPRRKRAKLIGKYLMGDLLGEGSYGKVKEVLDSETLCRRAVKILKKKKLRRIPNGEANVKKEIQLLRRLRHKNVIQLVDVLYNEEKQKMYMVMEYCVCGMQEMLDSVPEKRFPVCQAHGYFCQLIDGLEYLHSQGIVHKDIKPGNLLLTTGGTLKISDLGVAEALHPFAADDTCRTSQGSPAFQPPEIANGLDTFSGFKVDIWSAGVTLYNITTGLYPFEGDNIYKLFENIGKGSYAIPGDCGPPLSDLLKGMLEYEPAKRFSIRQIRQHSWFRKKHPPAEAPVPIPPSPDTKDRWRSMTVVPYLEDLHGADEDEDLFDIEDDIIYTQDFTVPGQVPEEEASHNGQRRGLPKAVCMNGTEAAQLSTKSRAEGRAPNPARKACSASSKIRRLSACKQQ
T5 sequence (Q7RTN6 1-431 partner): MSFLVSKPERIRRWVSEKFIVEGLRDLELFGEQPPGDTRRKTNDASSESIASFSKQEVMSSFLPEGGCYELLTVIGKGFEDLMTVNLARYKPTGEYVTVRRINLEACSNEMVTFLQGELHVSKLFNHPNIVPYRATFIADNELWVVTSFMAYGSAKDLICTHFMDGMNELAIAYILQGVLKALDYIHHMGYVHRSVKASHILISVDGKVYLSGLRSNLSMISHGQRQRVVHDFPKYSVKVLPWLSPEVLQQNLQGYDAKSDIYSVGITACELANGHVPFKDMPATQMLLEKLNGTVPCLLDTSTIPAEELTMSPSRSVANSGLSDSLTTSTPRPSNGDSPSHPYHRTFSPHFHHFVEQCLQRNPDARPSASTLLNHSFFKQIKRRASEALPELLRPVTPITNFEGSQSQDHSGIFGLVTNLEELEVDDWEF
T5 sequence (Q9Y376 1-341 partner): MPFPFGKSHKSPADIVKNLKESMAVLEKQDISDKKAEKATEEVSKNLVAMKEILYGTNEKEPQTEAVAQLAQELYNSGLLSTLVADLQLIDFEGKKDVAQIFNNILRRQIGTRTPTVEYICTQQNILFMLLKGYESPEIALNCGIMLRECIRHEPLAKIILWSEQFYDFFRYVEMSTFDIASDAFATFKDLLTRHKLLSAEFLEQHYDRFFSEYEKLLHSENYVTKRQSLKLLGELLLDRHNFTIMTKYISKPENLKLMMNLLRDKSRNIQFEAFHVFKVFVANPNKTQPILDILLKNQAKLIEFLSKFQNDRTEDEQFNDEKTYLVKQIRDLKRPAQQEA
How it was run: as §1

T4 sequence (P53350 whole entry, species assumed): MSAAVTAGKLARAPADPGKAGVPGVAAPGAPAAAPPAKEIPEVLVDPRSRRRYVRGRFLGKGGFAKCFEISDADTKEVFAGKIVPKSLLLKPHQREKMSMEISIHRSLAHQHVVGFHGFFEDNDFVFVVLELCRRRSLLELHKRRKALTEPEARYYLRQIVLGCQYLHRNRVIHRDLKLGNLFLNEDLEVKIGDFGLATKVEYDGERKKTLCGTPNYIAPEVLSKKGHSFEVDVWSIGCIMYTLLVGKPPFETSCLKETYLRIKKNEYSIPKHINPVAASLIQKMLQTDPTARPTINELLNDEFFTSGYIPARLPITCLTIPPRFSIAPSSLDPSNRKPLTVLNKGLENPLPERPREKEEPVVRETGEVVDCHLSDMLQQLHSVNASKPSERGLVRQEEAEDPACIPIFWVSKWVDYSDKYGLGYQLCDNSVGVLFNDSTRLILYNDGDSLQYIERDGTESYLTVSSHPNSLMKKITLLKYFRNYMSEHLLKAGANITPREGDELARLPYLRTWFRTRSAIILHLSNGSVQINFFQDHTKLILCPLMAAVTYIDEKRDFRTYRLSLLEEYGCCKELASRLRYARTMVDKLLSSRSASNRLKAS
T3 sequence (Q9HC98 whole entry, species assumed): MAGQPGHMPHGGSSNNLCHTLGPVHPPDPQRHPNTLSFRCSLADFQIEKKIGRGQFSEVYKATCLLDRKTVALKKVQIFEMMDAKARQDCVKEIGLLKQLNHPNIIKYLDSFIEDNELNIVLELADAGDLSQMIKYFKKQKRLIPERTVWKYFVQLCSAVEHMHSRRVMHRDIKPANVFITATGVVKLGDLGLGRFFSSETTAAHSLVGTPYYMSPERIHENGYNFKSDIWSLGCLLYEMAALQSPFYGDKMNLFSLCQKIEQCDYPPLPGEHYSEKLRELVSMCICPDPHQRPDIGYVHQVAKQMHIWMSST

In the case of c1ccc(Cc2c[nH]c3ncsc23)cc1 [Compound A7, 6-benzyl-4H-pyrrolo[2,3-d]thiazole], the IC50 (IKBKB) is reported as 1 to 10 µM, the IC50 (MAPK12) is reported as > 1 µM and the IC50 (NEK6) is reported as 10 to 100 µM. The IC50 (PLK1) was > 1 µM and the IC50 (STK11) was 10 to 100 µM.
In the case of Nc1ncsc1C#Cc1cnc2[nH]ccc2c1 [Compound A22, 5-(1H-pyrrolo[2,3-b]pyridin-5-ylethynyl)thiazol-4-ylamine], the IC50 (IKBKB) is reported as 10 to 100 µM, the IC50 (MAPK12) is reported as 1 to 10 µM and the IC50 (NEK6) is reported as > 1 µM. For the same compound, the IC50 (PLK1) was 1 to 10 µM and the IC50 (STK11) was > 1 µM.
With CC(C)(C)OC(=O)Nc1nc(-c2ccncc2)sc1C#CCN1CCOCC1 [Compound A25, tert-butyl[5-(3-morpholin-4-ylprop-1-ynyl)-2-pyridin-4-ylthiazol-4-yl]-carbamate] the IC50 (IKBKB) was > 1 µM, the IC50 (MAPK12) was 10 to 100 µM and the IC50 (NEK6) was 1 to 10 µM. For the same compound, the IC50 (PLK1) was > 1 µM and the IC50 (STK11) was > 1 µM.
CC(C)(C)OC(=O)Nc1ncsc1C#CCN1C(=O)c2ccccc2C1=O [Compound A26, tert-butyl{5-[3-(1,3-dioxo-1,3-dihydroisoindol-2-yl)prop-1-ynyl]-thiazol-4-yl}carbamate] was tested, and the IC50 (IKBKB) was > 1 µM, the IC50 (MAPK12) was 10 to 100 µM and the IC50 (NEK6) was 10 to 100 µM. For the same compound, the IC50 (PLK1) was > 1 µM and the IC50 (STK11) was 10 to 100 µM.
With Nc1ncsc1C#Cc1cccc(O)c1 [Compound A27, 3-(4-aminothiazol-5-ylethynyl)phenol] the IC50 (IKBKB) was 1 to 10 µM, the IC50 (MAPK12) was 1 to 10 µM and the IC50 (NEK6) was 10 to 100 µM. For the same compound, the IC50 (PLK1) was 10 to 100 µM and the IC50 (STK11) was > 1 µM.
